Measured values taken from patent publication US6492329B1, “Cytokine and hemopoietic factor endogenous production enhancer and methods of use thereof” (Novelos Therapeutics, Inc., priority 1995, dated 2002).

Tests used:
[1] = test system: Erlich adenocarcinoma cells; experiment: Erlich adenocarcinoma in mice: ascitic fluid and survival (Example 14); conditions: for Accumulation of ascitic (weight gain, %): Erlich adenocarcinoma
Protocol: (§6) An influence of 7 day course of test article daily administration was studied in respect of tumor progression, which was estimated using the two integral indices: pace of mouse weight gain due to accumulation of ascitic fluid, and by animal mean survival time after inoculation.
(§7) The study was carried out on DBA/2 mice weighing 18-21 g. First, tumor cell passage was performed using 6 animals for each cell line. For this, cells kept at the temperature of the liquid nitrogen were de-frozen and adjusted to the concentration of 5×10^6 cells/mL by sterile Hanks' solution. Then, 6 mice were intra peritoneally inoculated with 0.2 mL of each line cellular suspension.
(§8) Ascitic fluid was collected 6 days after the inoculation with L1210 cells, 8 days after the inoculation with P388 ones and 18 days after inoculation with Erlich adenocarcinoma cells. Thus obtained, the samples of passaged tumor cells were used for the main experiments. The fluid liquid was dissolved by sterile Hanks' solution so that cell concentration be 5×10^6 cells/mL for P388 cells and Erlich adenocarcinoma cells, 5×10^5 cells/mL for L1210 cells.
(§9) Eleven groups of animals with no less than 15 mice each were formed for experiments with either tumor cell line. Mice were inoculated with 0.2 mL of resultant cell suspensions per mouse (10^6 P388 and Erlich adenocarcinoma cells/mouse, and 10^5 L1210 cells/mouse). 24 hours after the tumor cells inoculation, animals were given the first injections of the test articles or vehicles. The test article injections were made daily till the 14th day of the experiment or till the animal death. The volume of solutions injected comprised 0.01 mL/g body weight.
(§10) #1—intact animals receiving imitation of tumor cell inoculation (injection of normal saline) which further were treated with normal saline throughout the entire experiment;
(§11) #2—control animals, inoculated with tumor cells, which further were treated with test article vehicle (normal saline);

[2] = test system: e-ras cell line (REF transformed with E1A and ras-oncogene); experiment: Number of clones of e-ras cells throughout 72-hr incubation; format: cell-based, rat
Protocol: (§1) To this end, these substances had been incubated for 72 hours with cells of rat embrional fibroblasts (REF) and the same cells, transformed with adenoviral E1A gene in complementation with ras-oncogene (e-ras cell line). Subsequent evaluation of the cellularity of experimental samples was carried out by counting the quantity of cell per milliliter (for REF cell line) or clones in dish (for e-ras cell line).
(§2) Cells were cultivated on DMEM medium supplemented with 10% fetal calf serum and […] gentamicin. Cultivation was carried out in Petri dishes.
(§3) E-ras cells were seeded at a cell density of 300 cells per 5 cm dish. 7 days after growth of e-ras cells had been started the quantity of clones was evaluated and the test articles were added into the dishes.
(§4) For the test-system for estimation of apoptosis regulation UV-induced cell death was triggered in a dose of 4 Dj. Test articles were added immediately after irradiation. Then, the quantity of cell per milliliter (for REF cell line) or clones in dish (for e-ras cell line) were monitored every 24 hours. For determination of DNA-fragmentation the electrophoresis in agarose gel was used at standard settings.

leukemia P388 cells [3] = experiment: Leukemia P388 in mice: ascitic fluid and survival (Example 14); conditions: for Accumulation of ascitic (weight gain, %): leukemia P388
Protocol: as §6, §7, §8, §9, §10, §11

[4] = test system: rat embrional fibroblasts (REF) after UV-irradiation; experiment: Number of REF cells after UV-irradiation; format: cell-based
Protocol: as §1, §2
(§5) REF cells was cultivated with initial density of 800 000 cell per mL, evaluation of the cellularity was performed at 0, 24, 48 and 72 hours of incubation with the test articles.
as §4

normal human lymphocytes = experiment: Proliferation/apoptosis of normal human lymphocytes (cell number per well, flow cytofluorometry); format: cell-based
leukemia P388 cells [5] = experiment: Leukemia P388 in mice: serum cytokines, ascitic fluid, survival (Example 5); conditions: for Accumulation of ascitic fluid (weight gain) / Concentration in serum: IFNα / Concentration in serum: IL-1 / Concentration in serum: IL-2 / Concentration in serum: IL-6 / Concentration in serum: TNFα: P388 mice
Protocol: (§12) An influence of 7 day course of test article daily administration was studied in respect of variations of serum cytokine levels (IL-1, IL-2, IL-6, IFNα, TNF). In parallel, the tumor progression was estimated using the two integral indices: pace of mouse weight gain due to accumulation of ascitic fluid, and by animal mean survival time after inoculation.
(§13) The study was carried out on DBA/2 mice weighing 18-21 g. First, tumor cell passage was performed using 6 animals for each cell line. For this, cells kept at the temperature of the liquid nitrogen were de-frozen and adjusted to the concentration of 5×10^6 cells/mL by sterile Hanks' solution. Then, 6 mice were intraperitoneally inoculated with 0.2 mL of each line cellular suspension.
(§14) Ascitic fluid was collected 6 days after the inoculation with L1210 cells and 8 days after the inoculation with P388 ones. Thus obtained, the samples of passaged tumor cells were used for the main experiments. The fluid liquid was dissolved by sterile Hanks' solution so that cell concentration be 5×10^6 cells/mL for P388 cells and 5×10^5 cells/mL for L1210 cells.
(§15) Nine groups of animals with no less than 15 mice each were formed for experiments with either tumor cell line. Mice were inoculated with 0.2 mL of resultant cell suspensions per mouse (10^6 P388 cells/mouse, and 10^5 L1210 cells/mouse). 24 hours after the tumor cells inoculation. animals were given the first injections of the test articles or vehicles. The test article injections were made daily till the 14th day of the experiment or until the animal's death. The volume of solutions injected comprised 0.01 mL/g body weight.
as §10, §11

leukemia L1210 cells [6] = experiment: Leukemia L1210 in mice: serum cytokines, ascitic fluid, survival (Example 5); conditions: for Accumulation of ascitic fluid (weight gain) / Concentration in serum: IFNα / Concentration in serum: IL-1 / Concentration in serum: IL-2 / Concentration in serum: IL-6 / Concentration in serum: TNFα: L1210 mice
Protocol: as §12, §13, §14, §15, §10, §11

[7] = test system: rat embrional fibroblasts (REF); experiment: Number of REF cells throughout 72-hr incubation; format: cell-based
Protocol: as §1, §2, §5, §4

leukemia L1210 cells [8] = experiment: Leukemia L1210 in mice: ascitic fluid and survival (Example 14); conditions: for Accumulation of ascitic (weight gain, %): leukemia L1210
Protocol: as §6, §7, §8, §9, §10, §11

HL-60 cells = experiment: Proliferation/apoptosis of HL-60 tumor cells (cell number per well, flow cytofluorometry)
Protocol: Subsequent evaluation of the cell cycle parameters was carried out by the flow cytofluorometry technique.
A mononuclear fraction of blood leukocytes were obtained by centrifugation in gradient of fikoll-metrizoat (Histopaque, Sigma). […] Cell viability was estimated by the Trypan blue exclusion method, then the cell suspension was placed into wells of 96-well microtiter plates—200,000 cells per well. […] Cultivation was carried out in closed flasks, the medium volume was 12 mL, it was changed every four days by centrifugation. The nature of the cells growth was suspensive. […] 50 μL of each test solution were added to one or the other cell culture and thereafter cells were cultivated for 24-96 hours. Then, they were tested by the flow cytofluorometry to estimate DNA content in the cell nuclei. In case of apoptosis-like cellular death, the portion of cell nuclei with normal content of DNA became reduced, while the portion of cell nuclei containing abnormally small DNA quantity became larger.
The analysis procedure was the following: after incubation completion, cells were centrifuged and transferred to a standard phosphate isotonic buffer pH 7.4, containing RNA-ase A (20 μg/mL), ethidium bromide (fluorometric indicator for double stranded nucleic acid. 10 μg/mL) and MgCl2 (5 mM). After the cells were disintegrated by nonionic detergent Triton X-100 (final concentration 0.1%). The suspension of cell nuclei thus obtained was analyzed by flow cytofluorometry with an argon laser as a source of light (wave length 488 nm). The red fluorescence due to DNA bound ethidium bromide was taken to be the measure of DNA content in the cell nuclei.

[9] = test system: e-ras cells after UV-irradiation; experiment: Number of clones of e-ras cells after UV-irradiation; format: cell-based, rat
Protocol: as §1, §2, §3, §4

In the case of `O=c1[nH]cnc2c1ncn2[C@@H]1O[C@H](CO)[C@@H](O)[C@H]1O` [0.1% inosine, hypoxanthine-9-D-ribofuranoside], the “Accumulation of ascitic (weight gain, %)” value ([1]; number of injection 0) is reported as 0.8 ± 0.2%, the “Accumulation of ascitic (weight gain, %)” value ([1]; number of injection 3) is reported as 11.9 ± 0.2% and the “Accumulation of ascitic (weight gain, %)” value ([1]; number of injection 7) is reported as 26.8 ± 2.1%. The Mean survival time ([1]; mice inoculated with Erlich adenocarcinoma cells) was 10.1 ± 0.6, the “number of clones of e-ras cells (M ± m)” value ([2]; 0 hours of incubation) was 292 ± 11 and the “number of clones of e-ras cells (M ± m)” value ([2]; 24 hours of incubation) was 290 ± 8. For the same compound, the “number of clones of e-ras cells (M ± m)” value ([2]; 48 hours of incubation) was 269 ± 8, the “number of clones of e-ras cells (M ± m)” value ([2]; 72 hours of incubation) was 243 ± 8 and the “Accumulation of ascitic (weight gain, %)” value (leukemia P388 cells [3]; number of injection 0) was 0.5 ± 0.2%. For the same compound, the “Accumulation of ascitic (weight gain, %)” value (leukemia P388 cells [3]; number of injection 3) was 3.9 ± 0.4%, the “Accumulation of ascitic (weight gain, %)” value (leukemia P388 cells [3]; number of injection 7) was 16.6 ± 2.6% and the Mean survival time (leukemia P388 cells [3]; mice inoculated with leukemia P388 cells) was 21.8 ± 0.6. For the same compound, the “number of REF cells after UV-irradiation (M ± m)” value ([4]; 0 hours) was 811 ± 10 × 10^3 cells, the “number of REF cells after UV-irradiation (M ± m)” value ([4]; 24 hours) was 426 ± 24 × 10^3 cells and the “number of REF cells after UV-irradiation (M ± m)” value ([4]; 48 hours) was 262 ± 22 × 10^3 cells. For the same compound, the “number of REF cells after UV-irradiation (M ± m)” value ([4]; 72 hours) was 234 ± 28 × 10^3 cells, the “number of normal lymphocytes per well” value (normal human lymphocytes; 24 hours incubation) was 26 ± 4 × 10^4 cells and the “number of normal lymphocytes per well” value (normal human lymphocytes; 48 hours incubation) was 78 ± 7 × 10^4 cells. For the same compound, the “number of normal lymphocytes per well” value (normal human lymphocytes; 72 hours incubation) was 141 ± 12 × 10^4 cells, the “number of normal lymphocytes per well” value (normal human lymphocytes; 96 hours incubation) was 216 ± 16 × 10^4 cells and the “Accumulation of ascitic fluid (weight gain)” value (shortened to “Accumulation of ascitic fluid”) (leukemia P388 cells [5]; 0 injections) was 0.58 ± 0.13%. For the same compound, the “Concentration in serum: IFNα” value (leukemia P388 cells [5]; 0 injections) was 81.4 ± 6.13 pg/mL, the “Concentration in serum: IL-1” value (leukemia P388 cells [5]; 0 injections) was 36.7 ± 5.12 pg/mL and the “Concentration in serum: IL-2” value (leukemia P388 cells [5]; 0 injections) was 16.50 ± 1.09 pg/mL. For the same compound, the “Concentration in serum: IL-6” value (leukemia P388 cells [5]; 0 injections) was 115.0 ± 12.5 pg/mL, the “Concentration in serum: TNFα” value (leukemia P388 cells [5]; 0 injections) was 122.0 ± 10.0 pg/mL and the “Accumulation of ascitic fluid” value (leukemia P388 cells [5]; 3 daily injections) was 6.8 ± 0.8%. The “Concentration in serum: IFNα” value (leukemia P388 cells [5]; 3 daily injections) was 105. ± 11.3 pg/mL, the “Concentration in serum: IL-1” value (leukemia P388 cells [5]; 3 daily injections) was 48.2 ± 7.13 pg/mL and the “Concentration in serum: IL-2” value (leukemia P388 cells [5]; 3 daily injections) was 20.19 ± 1.54 pg/mL. The “Concentration in serum: IL-6” value (leukemia P388 cells [5]; 3 daily injections) was 90.0 ± 7.11 pg/mL, the “Concentration in serum: TNFα” value (leukemia P388 cells [5]; 3 daily injections) was 96.5 ± 8.7 pg/mL and the “Accumulation of ascitic fluid” value (leukemia P388 cells [5]; 7 daily injections) was 25.0 ± 2.22%. The “Concentration in serum: IFNα” value (leukemia P388 cells [5]; 7 daily injections) was 184. ± 16.1 pg/mL, the “Concentration in serum: IL-1” value (leukemia P388 cells [5]; 7 daily injections) was 31.0 ± 5.12 pg/mL and the “Concentration in serum: IL-2” value (leukemia P388 cells [5]; 7 daily injections) was 13.40 ± 1.68 pg/mL. The “Concentration in serum: IL-6” value (leukemia P388 cells [5]; 7 daily injections) was 129.0 ± 10.4 pg/mL, the “Concentration in serum: TNFα” value (leukemia P388 cells [5]; 7 daily injections) was 144.8 ± 12.9 pg/mL and the Mean survival time (leukemia P388 cells [5]; mice inoculated with leukemia P388 cells, daily injections till day 14 or death) was 9.8 ± 0.21. For the same compound, the “Accumulation of ascitic fluid” value (leukemia L1210 cells [6]; 0 injections) was 0.61%, the “Concentration in serum: IFNα” value (leukemia L1210 cells [6]; 0 injections) was 117.3 pg/mL and the “Concentration in serum: IL-1” value (leukemia L1210 cells [6]; 0 injections) was 41.0 pg/mL. The “Concentration in serum: IL-2” value (leukemia L1210 cells [6]; 0 injections) was 17.80 pg/mL, the “Concentration in serum: IL-6” value (leukemia L1210 cells [6]; 0 injections) was 108. pg/mL and the “Concentration in serum: TNFα” value (leukemia L1210 cells [6]; 0 injections) was 104.3 pg/mL. The “Accumulation of ascitic fluid” value (leukemia L1210 cells [6]; 3 daily injections) was 7.02%, the “Concentration in serum: IFNα” value (leukemia L1210 cells [6]; 3 daily injections) was 160.0 pg/mL and the “Concentration in serum: IL-1” value (leukemia L1210 cells [6]; 3 daily injections) was 55.6 pg/mL. For the same compound, the “Concentration in serum: IL-2” value (leukemia L1210 cells [6]; 3 daily injections) was 22.3 pg/mL, the “Concentration in serum: IL-6” value (leukemia L1210 cells [6]; 3 daily injections) was 91.0 pg/mL and the “Concentration in serum: TNFα” value (leukemia L1210 cells [6]; 3 daily injections) was 130.0 pg/mL. For the same compound, the “Accumulation of ascitic fluid” value (leukemia L1210 cells [6]; 7 daily injections) was 26.30%, the “Concentration in serum: IFNα” value (leukemia L1210 cells [6]; 7 daily injections) was 205. pg/mL and the “Concentration in serum: IL-1” value (leukemia L1210 cells [6]; 7 daily injections) was 36.40 pg/mL. The “Concentration in serum: IL-2” value (leukemia L1210 cells [6]; 7 daily injections) was 14.6 pg/mL, the “Concentration in serum: IL-6” value (leukemia L1210 cells [6]; 7 daily injections) was 119. pg/mL and the “Concentration in serum: TNFα” value (leukemia L1210 cells [6]; 7 daily injections) was 157.0 pg/mL. For the same compound, the Mean survival time (leukemia L1210 cells [6]; mice inoculated with leukemia L1210 cells, daily injections till day 14 or death) was 9.61 ± 0.18, the “number of REF cells (M ± m)” value ([7]; 0 hours of incubation) was 811 ± 10 × 10^3 cells and the “number of REF cells (M ± m)” value ([7]; 24 hours of incubation) was 1426 ± 24 × 10^3 cells. For the same compound, the “number of REF cells (M ± m)” value ([7]; 48 hours of incubation) was 2642 ± 25 × 10^3 cells, the “number of REF cells (M ± m)” value ([7]; 72 hours of incubation) was 5034 ± 128 × 10^3 cells and the “Accumulation of ascitic (weight gain, %)” value (leukemia L1210 cells [8]; number of injection 0) was 0.56 ± 0.2%. The “Accumulation of ascitic (weight gain, %)” value (leukemia L1210 cells [8]; number of injection 3) was 7.9 ± 0.4%, the “Accumulation of ascitic (weight gain, %)” value (leukemia L1210 cells [8]; number of injection 7) was 26.6 ± 2.4% and the Mean survival time (leukemia L1210 cells [8]; mice inoculated with leukemia L1210 cells) was 9.8 ± 0.6. The “number of HL-60 cells per well” value (HL-60 cells; 24 hours incubation) was 96 ± 8 × 10^4 cells, the “number of HL-60 cells per well” value (HL-60 cells; 48 hours incubation) was 152 ± 8 × 10^4 cells and the “number of HL-60 cells per well” value (HL-60 cells; 72 hours incubation) was 312 ± 21 × 10^4 cells. The “number of HL-60 cells per well” value (HL-60 cells; 96 hours incubation) was 527 ± 18 × 10^4 cells, the “number of clones of e-ras cells after UV-irradiation (M ± m)” value ([9]; 0 hours) was 292 ± 11 and the “number of clones of e-ras cells after UV-irradiation (M ± m)” value ([9]; 24 hours) was 190 ± 8. For the same compound, the “number of clones of e-ras cells after UV-irradiation (M ± m)” value ([9]; 48 hours) was 129 ± 8 and the “number of clones of e-ras cells after UV-irradiation (M ± m)” value ([9]; 72 hours) was 93 ± 8.
